Results: patent US20250352600A1, “DIETARY SUPPLEMENTS FOR BRAIN HEALTH” (Melaleuca, Inc., priority 2024, published 2025)

Columns and labels:
Type in all cases: in vivo, human
[1] = Moderate-Caffeine User Follow-Up, Profile of Mood States (POMS) survey; parameters: Fatigue / Vigor / Confusion / TMD / Tension / Esteem-related Affect: scale not given here; details: moderate-caffeine users; for TMD: total mood disturbance
Text: (§1) The study included subjective tests (POMS and product questions) only. […] There were 7 male and 6 female participants with an average age of 39.5 years.

[2] = Moderate-Caffeine User Follow-Up, product questions (statement agreement)
Text: as §1

[3] = Low-Caffeine User Clinical Study, Profile of Mood States (POMS) survey; details: low-caffeine users
Text: This study included subjective (POMS and product questions) and objective (CNSVS) tests.

[4] = Moderate-Dose Caffeine Cohort (mean 338 mg/d), n = 12-13
[5] = Statement Agreement, Moderate-Dose Caffeine Cohort (mean 338 mg/d), n = 12-13

For `Cn1c(=O)c2c(ncn2C)n(C)c1=O` [Caffeine, caffeine], which Confusion ([1]; n = 12-13, Post) is on record?
The Confusion was 1.17 ± 2.92.

And the Depression ([1]; n = 12-13, Post)?
The Depression was 1.17 ± 4.04.

And the “Esteem-related Affect” value ([1]; n = 12-13, Post)?
The value was 15.92 ± 3.15.

And the Fatigue ([1]; n = 12-13, Post)?
The Fatigue was 2.25 ± 3.02.

And the Tension ([1]; n = 12-13, Post)?
The Tension was 1.83 ± 3.54.

What about the Fatigue ([1]; n = 12-13, Post, listed as caffeine) of the same compound?
The Fatigue was “did not relieve”.

What about the Confusion ([1]; n = 12-13, Pre) of the same compound?
The Confusion was 2.25 ± 2.38.

What about the Depression ([1]; n = 12-13, Pre) of the same compound?
The Depression was 1.50 ± 3.45.

And the “Esteem-related Affect” value ([1]; n = 12-13, Pre)?
Its value is 14.42 ± 3.23.

What about the Fatigue ([1]; n = 12-13, Pre) of the same compound?
The Fatigue was 5.58 ± 4.70.

And the Tension ([1]; n = 12-13, Pre)?
The Tension was 3.00 ± 2.73.

What about the Vigor ([1]; n = 12-13, Pre) of the same compound?
The Vigor was 4.25 ± 2.93.

What about the TMD ([1]; n = 12-13, Post) of the same compound?
The TMD was −17.17 ± 17.69.

And the TMD ([1]; n = 12-13, Pre)?
Its TMD is −4.92 ± 13.92.

What about the “I am in a better mood after having taken the product, % Top 2 Box” value [2, 4] of the same compound?
Its value is 42%.

What about the “I had no trouble recalling [things] after taking the product, % Top 2 Box” value [2, 4] of the same compound?
The value was 58%.

What about the “I was better able to focus after taking the product, % Top 2 Box” value [2, 4] of the same compound?
The value was 58%.

What about the “I was more alert after taking the product, % Top 2 Box” value [2, 4] of the same compound?
Its value is 58%.

And the “The product enhanced my ability to pay attention, % Top 2 Box” value [2, 4]?
The value was 58%.

What about the “The product improved my energy levels, % Top 2 Box” value [2, 4] of the same compound?
Its value is 67%.

What about the “I am in a better mood after having taken the product, Scores” value [2, 5] of the same compound?
Its value is 3.33.

And the “I had no trouble recalling [things] after taking the product, Scores” value [2, 5]?
Its value is 3.67.

And the “I was better able to focus after taking the product, Scores” value [2, 5]?
Its value is 3.25.

And the “I was more alert after taking the product, Scores” value [2, 5]?
The value was 3.67.

And the “The product enhanced my ability to pay attention, Scores” value [2, 5]?
Its value is 3.50.

What about the “The product improved my energy levels, Scores” value [2, 5] of the same compound?
Its value is 3.75.

What about the “performance of treatment arms among those with moderate caffeine intake” value ([2]; moderate-caffeine users) of the same compound?
Its value is “performed better”.

What about the Anger ([3]; n = 30, Post) of the same compound?
Its Anger is 0.90.

What about the Confusion ([3]; n = 30, Post) of the same compound?
Its Confusion is 1.20.

And the Depression ([3]; n = 30, Post)?
Its Depression is 0.60.

And the “Esteem-related Affect” value ([3]; n = 30, Post)?
Its value is 14.63.

What about the Fatigue ([3]; n = 30, Post) of the same compound?
The Fatigue was 2.77.

What about the Tension ([3]; n = 30, Post) of the same compound?
Its Tension is 2.80.

And the Vigor ([3]; n = 30, Post)?
The Vigor was 7.27.

And the Anger ([3]; n = 30, Pre)?
The Anger was 1.55.

And the Confusion ([3]; n = 30, Pre)?
Its Confusion is 2.93.

And the Depression ([3]; n = 30, Pre)?
The Depression was 1.79.

What about the “Esteem-related Affect” value ([3]; n = 30, Pre) of the same compound?
Its value is 13.59.

What about the Fatigue ([3]; n = 30, Pre) of the same compound?
Its Fatigue is 5.66.

And the Tension ([3]; n = 30, Pre)?
Its Tension is 4.48.

And the Vigor ([3]; n = 30, Pre)?
Its Vigor is 5.69.

And the TMD ([3]; total mood disturbance, n = 30, Post)?
The TMD was −13.63.
